Data: PMC12561106, “STOP Strategy to Inhibit P. falciparum and S. aureus Growth: Molecular Mechanism Studies on Purposely Designed Hybrids” (Antibiotics, 2025)
In brackets after ≈: the same amount, converted by molar mass. Like-named read-outs stand apart in the source and are kept apart here.

Tests used:
E. coli ATCC 25923 = experiment: broth microdilution antimicrobial assay (MIC); format: cell-based; settings: Escherichia coli, ATCC25923, 24 h, range 100–0.19 µM
S. aureus ATCC 25923 = experiment: broth microdilution antimicrobial assay (MIC, IC50); format: cell-based; settings: Staphylococcus aureus, ATCC25923; for IC50: S. aureus ATCC 25923, 24 h, OD630, mean value with standard deviation, read-out: IC50 ATCC 25923; for MIC: broth microdilution, 24 h, range 100–0.19 µM
From the text: (§1) Reference bacterial strains of Staphylococcus aureus (ATCC 25923) and Escherichia coli (ATCC 25922) were used in this study as Gram-positive and negative models, respectively. These reference strains were purchased from the American Type Culture Collection (ATCC, Manassas, VA, USA). Clinical isolates, identified by MALDI-TOF MS (Bruker Daltonik, GmbH, Bremen, Germany), were profiled for their antibiotic susceptibility by using the Vitek2 semiautomated system (bioMérieux, Craponne, France) and according to EUCAST (Version 12, 2022, http://www.eucast.org (accessed on 1 January 2022)). The bacterial cultures were routinely grown on 5% blood agar plates (Biolife Italiana S.r.l., Milan, Italy) and were freshly used in the antibacterial assays.
(§2) The minimum inhibitory concentrations (MICs) were determined using the microbroth dilution method in microtiter plates according to the Clinical and Laboratory Standards Institute (CLSI) guidelines. In short, microbial inocula were prepared at 0.5 McFarland in PBS and, subsequently, bacterial suspensions were diluted 1:200 in Mueller–Hinton broth (Sigma-Aldrich, St. Louis, MO, USA), while fungal inoculum was diluted 1:20 in RPMI-1640 medium (Gibco®, ThermoFisher Scientific Inc., Waltham, MA, USA), containing glucose 2%, 0.3% levo-glutamine buffered to pH 7.0 with 0.165 M 3-(N-morpholino)propanesulfonic acid (MOPS). A total of 100 µL of these microbial suspensions was introduced into a 96-well microplate and incubated with 100 µL of the compounds, two-fold serially diluted in the range of 100–0.19 µM. Positive controls (microbial suspensions in regular media), negative controls (only compounds), solvent controls (microbial suspensions incubated with DMSO dilutions), and the reference drug controls were included in the tests. The plate was incubated at 37 °C for 24 h, and subsequently the optical density at 630 nm (OD630nm) was spectrophotometrically measured. Experiments were performed in triplicate with three biological replicates. In addition to MIC, IC50 values were measured for the active compounds. The values, corresponding to the concentration of the compound giving rise to an inhibition of growth of 50%, were obtained by interpolation on dose–response curves generated by plotting the percentages of growth inhibition, relative to the positive control (set to 100% of growth), as a function of the tested concentrations (on a logarithm scale). Statistical analysis was carried out by using GraphPad Prism version 9.4.1 for Windows (GraphPad Software, San Diego, CA, USA, www.graphpad.com).

[1] = test system: clinical isolates of S. aureus (MRSA); experiment: antibiotic susceptibility profiling of clinical isolates (Vitek2, EUCAST); format: cell-based, Staphylococcus aureus; settings: for Antibiotic-resistance profile, MRSA 1: clinical isolate MRSA 1; for Antibiotic-resistance profile, MRSA 2: clinical isolate MRSA 2; for Antibiotic-resistance profile, MRSA 3: clinical isolate MRSA 3; for Antibiotic-resistance profile, MRSA 4: clinical isolate MRSA 4; for Antibiotic-resistance profile, MRSA 5: clinical isolate MRSA 5; as to all read-outs here: key: R = Resistant; S = Susceptible; I = Intermediate
From the text: as §1

[2] = test system: P. falciparum CQ-sensitive (CQ-S) D10 strain; experiment: antiplasmodial drug susceptibility assay (pLDH), CQ-sensitive strain; format: cell-based; settings: Plasmodium falciparum, read-out: IC50 D10 (CQ-S)
Description: (§3) P. falciparum cultures were carried out according to Trager and Jensen with slight modifications. The CQ-sensitive strain D10 and the CQ-resistant strain W2 were maintained at 5% hematocrit (human A-positive erythrocytes) in RPMI 1640 medium (EuroClone S.p.A, Milan, Italy) with the addition of 1% AlbuMax (Invitrogen, San Diego, California, USA), 0.01% hypoxanthine, 20 mM Hepes, and 2 mM glutamine at 37 °C in a standard gas mixture (1% O2, 5% CO2, and 94% N2). […] Drugs were placed in 96-well flat-bottomed microplates, and serial dilutions were made. Asynchronous cultures with parasitaemia of 1–1.5% and 1% final hematocrit were aliquoted into the plates and incubated for 72 h at 37 °C. Parasite growth was determined spectrophotometrically (OD650nm) by measuring the activity of the parasite lactate dehydrogenase (pLDH), as described in a modified version of Makler’s method in control- and drug-treated cultures. The antiplasmodial activity is expressed as 50% inhibitory concentrations (IC50); each IC50 value is the mean ± standard deviation of at least three separate experiments performed in duplicate.

[3] = test system: P. falciparum CQ-resistant (CQ-R) W2 strain; experiment: antiplasmodial drug susceptibility assay (pLDH), CQ-resistant strain; format: cell-based; settings: Plasmodium falciparum, read-out: IC50 W2 (CQ-R)
Description: as §3

[4] = cell viability and proliferation assay (CCK-8/WST8); format: cell-based; settings: human, WS1 cells (human-derived fibroblasts, ATCC CRL-1502), mean value with standard deviation
Description: WS1 cells (ATCC CRL-1502) were selected as a model system to investigate the effect of PTZ-quinoline hybrid compounds on human-derived fibroblasts. Briefly, cells were cultured in DMEM-High glucose supplemented with 10% fetal bovine serum (FBS) (Carlo Erba Reagents, Milan, Italy), 100 U/mL penicillin, and 100 µg/mL streptomycin at 37 °C with 5% CO2. For experiments, cells were seeded into 96-well plates at 0.7 × 10^4 cells/well, and incubated at 37 °C for 24 h. […] Cell viability was assessed by a WST8-based assay according to the manufacturer’s instructions (CCK-8, Cell Counting Kit-8, Dojindo Molecular Technologies, Rockville, MD, USA). After 48 h of incubation, culture medium was removed from each well, the monolayer was washed with PBS, and 100 µL of fresh medium containing 10 µL of CCK-8 solution was added. Following a 2 h incubation at 37 °C, the OD450nm was read, and data were expressed as the percentage of cell viability relative to the untreated controls. The CC50 was obtained on the corresponding dose–response curves generated as previously reported for IC50 values. Experiments were carried out in triplicate in three biological replicates.

C. albicans ATCC 10231 = experiment: broth microdilution antifungal assay (MIC); format: cell-based; settings: Candida albicans, ATCC10231, 24 h, range 100–0.19 µM
Description: The reference strain of Candida albicans (ATCC 10231) was used in the present study and maintained on Sabouraud Dextrose Agar (Biolife Italiana S.r.l., Milan, Italy) before the antifungal assays.
as §2

[5] = P. falciparum D10, 72 h, pLDH, mean value with standard deviation
[6] = P. falciparum W2, 72 h, pLDH, mean value with standard deviation

Row | Compound | MIC (E. coli ATCC 25923) | MIC (S. aureus ATCC 25923) | Antibiotic-resistance profile, MRSA 1 [1] | Antibiotic-resistance profile, MRSA 2 [1] | Antibiotic-resistance profile, MRSA 3 [1] | Antibiotic-resistance profile, MRSA 4 [1] | Antibiotic-resistance profile, MRSA 5 [1] | CC50 at 48 h [4] | MIC (C. albicans ATCC 10231) | further results
1 | CC1(C)S[C@@H]2[C@H](NC(=O)[C@H](N)c3ccccc3)C(=O)N2[C@H]1C(=O)O [AMP, ampicillin, reference compound] | 67.3 µM (≈ 23.5 µg/mL) | 4.2 µM (≈ 1.47 µg/mL) | – | – | – | – | – | – | – | IC50 (S. aureus ATCC 25923): 2.59 ± 0.13 µM
2 | CN[C@H](CC(C)C)C(=O)N[C@H]1C(=O)N[C@@H](CC(N)=O)C(=O)N[C@H]2C(=O)N[C@H]3C(=O)N[C@H](C(=O)N[C@H](C(=O)O)c4cc(O)cc(O)c4-c4cc3ccc4O)[C@H](O)c3ccc(c(Cl)c3)Oc3cc2cc(c3O[C@@H]2O[C@H](CO)[C@@H](O)[C@H](O)[C@H]2O[C@H]2C[C@](C)(N)[C@H](O)[C@H](C)O2)Oc2ccc(cc2Cl)[C@H]1O [VA, Vancomycin] | – | – | S | S | S | S | S | – | – | –
3 | Clc1ccc2c(NCCCCCn3cc(CN4c5ccccc5Sc5ccccc54)nn3)ccnc2c1 [Compound 6a, N-(5-(4-((10H-phenothiazin-10-yl)methyl)-1H-1,2,3-triazol-1-yl)pentyl)-7-chloroquinolin-4-amine] | > 100 µM | > 100 µM | – | – | – | – | – | 48.3 ± 0.9 µM | > 100 µM | IC50 [2, 5]: 0.326 ± 0.12 µM; IC50 [3, 6]: 0.377 ± 0.066 µM
4 | CNC(C)C1CCC(N)C(OC2C(N)CC(N)C(OC3OCC(C)(O)C(NC)C3O)C2O)O1 (centres unmarked) [GEN, gentamicin] | 1.03 µM (≈ 0.492 µg/mL) | 6.6 µM (≈ 3.15 µg/mL) | S | S | S | S | S | – | – | IC50 (S. aureus ATCC 25923): 4 ± 0.05 µM
5 | Clc1ccc2c(N3CCN(CCCN4c5ccccc5Sc5ccccc54)CC3)ccnc2c1 [Compound 1, 10-(3-(4-(7-chloroquinolin-4-yl)piperazin-1-yl)propyl)-10H-phenothiazine] | > 100 µM | > 100 µM | – | – | – | – | – | > 100 µM | > 100 µM | IC50 [2, 5]: 2.52 ± 0.84 µM; IC50 [3, 6]: 2.32 ± 1.05 µM
6 | OC(Cn1cncn1)(Cn1cncn1)c1ccc(F)cc1F [FLC, Fluconazole, reference compound] | – | – | – | – | – | – | – | – | 0.82 µM (≈ 0.251 µg/mL) | –
7 | Penicillin | – | – | R | R | R | R | R | – | – | –
8 | C[C@H]1COc2c(N3CCN(C)CC3)c(F)cc3c(=O)c(C(=O)O)cn1c23 [LVX, Levofloxacin] | – | – | R | R | R | R | R | – | – | –
9 | CCN(CC)CCCC(C)Nc1ccnc2cc(Cl)ccc12 (centres unmarked) [CQ, chloroquine, reference compound] | – | – | – | – | – | – | – | – | – | IC50 ([2]; D10, 72 h): 0.025 ± 0.007 µM; IC50 ([3]; W2, 72 h): 0.42 ± 0.103 µM
10 | Clc1ccc2c(c1)N(Cc1cn(CCCCCNc3ccnc4cc(Cl)ccc34)nn1)c1ccccc1S2 [Compound 6b, 7-chloro-N-(5-(4-((2-chloro-10H-phenothiazin-10-yl)methyl)-1H-1,2,3-triazol-1-yl)pentyl)quinolin-4-amine] | > 100 µM | 50 µM (≈ 28.1 µg/mL) | – | – | – | – | – | 34.3 ± 0.52 µM | > 100 µM | IC50 [2, 5]: 0.602 ± 0.314 µM; IC50 (S. aureus ATCC 25923): 25.1 ± 1.76 µM; IC50 [3, 6]: 0.184 ± 0.093 µM
11 | Teicoplanin [TEC] | – | – | S | S | S | S | S | – | – | –
12 | Clc1ccc2c(N3CCN(CCCCCN4c5ccccc5Sc5ccccc54)CC3)ccnc2c1 [Compound 3, 10-(5-(4-(7-chloroquinolin-4-yl)piperazin-1-yl)pentyl)-10H-phenothiazine] | > 100 µM | > 100 µM | – | – | – | – | – | > 100 µM | > 100 µM | IC50 [2, 5]: 2.34 ± 0.012 µM; IC50 [3, 6]: 0.99 ± 0.245 µM
13 | Cc1onc(-c2ccccc2)c1C(=O)N[C@@H]1C(=O)N2[C@@H]1SC(C)(C)[C@@H]2C(=O)O [OX, Oxacillin] | – | – | R | R | R | R | R | – | – | –
14 | CN(C)[C@@H]1C(O)=C(C(N)=O)C(=O)[C@@]2(O)C(O)=C3C(=O)c4c(O)cccc4[C@@](C)(O)[C@H]3C[C@@H]12 [TE, Tetracycline] | – | – | S | S | S | S | S | – | – | –
15 | Clc1ccc2c(N3CCN(CCCCN4c5ccccc5Sc5ccccc54)CC3)ccnc2c1 [Compound 2, 10-(4-(4-(7-chloroquinolin-4-yl)piperazin-1-yl)butyl)-10H-phenothiazine] | > 100 µM | > 100 µM | – | – | – | – | – | > 100 µM | > 100 µM | –
16 | CCC[C@@H]1C[C@@H](C(=O)N[C@@H]([C@H]2O[C@H](SC)[C@H](O)[C@@H](O)[C@H]2O)[C@H](C)Cl)N(C)C1 [CM, Clindamicyn] | – | – | – | – | R | S | S | – | – | –
17 | Clc1ccc2c(-n3cc(CN4c5ccccc5Sc5ccccc54)nn3)ccnc2c1 [Compound 7, 10-((1-(7-chloroquinolin-4-yl)-1H-1,2,3-triazol-4-yl)methyl)-10H-phenothiazine] | > 100 µM | > 100 µM | – | – | – | – | – | > 100 µM | > 100 µM | –
18 | CC[C@H]1OC(=O)[C@H](C)[C@@H](O[C@H]2C[C@@](C)(OC)[C@@H](O)[C@H](C)O2)[C@H](C)[C@@H](O[C@@H]2O[C@H](C)C[C@H](N(C)C)[C@H]2O)[C@](C)(O)C[C@@H](C)C(=O)[C@H](C)[C@@H](O)[C@]1(C)O [E, Erythromycin] | – | – | – | – | R | S | S | – | – | –
